From article PMC13492380, “Dissecting Structural and Functional Determinants of Microtubules Stabilization through Guided Chemical Modulation” (Journal of Medicinal Chemistry, 2026) come the findings set out here.

This assay relates to taxane site of assembled cross-linked MTs. The assay is described as follows: Displacement of FTX2 from the taxane site (fluorescence polarization). The format is binding, calf. Conditions: for incremental binding free energy (ΔΔG), PTX-to-derivative modification: 35 °C; for ΔH 0 app: Van't Hoff analysis, 26–42 °C; for ΔG 0 app at 26 °C: from binding constant, −RT Ln Ka; for ΔS 0 app: slope of ΔG0app versus T. Here is the method: Purified calf brain tubulin and chemicals were obtained as previously described. Tau-mCherry was expressed and purified as described previously. Human Kif5B-EGFP (amino acids 1-905), containing a C terminal fluorescent-tag followed by a 3C protease cleavage site and a 6 × His-tag was expressed and purified as in with some modifications. Prior to purification, cells were resuspended in 1:1 ratio of lysis buffer (30 mM HEPES pH 7.5, 300 mM NaCl, 0.5 mM ATP, 5% glycerol, 20 mM imidazole, […]) supplemented with 1× Protease inhibitor cocktail and benzonase to the final concentration of 25 units/ml. Cells were homogenized by repeated pipetting. Cells were lysed by spinning for 45 min at 40,000 rpm in 45 Ti fixed-angle rotor (Beckman Coulter) at 4 °C. The supernatant was incubated with pre-equilibrated HisPUR NiNTA agarose resin (Thermo Fisher Scientific) for 1 h in a tightly closed gravity-flow column (Thermo Fisher Scientific) at 4 °C by slowly rotating. Subsequently, the resin was washed once lysis buffer and then with buffer B (30 mM HEPES pH 7.5, 300 mM NaCl, 0.5 mM ATP, 5% glycerol, 30 mM imidazole, […]). The protein was eluted from the resin after an overnight cleavage of the 6 × His-tag with 3C HRV protease in lysis buffer at 4 °C. The eluted protein was further purified via size exclusion chromatography on Superdex 200 10/300 GL column equilibrated in exclusion buffer (30 mM HEPES pH 7.5, 300 mM NaCl, 0.5 mM ATP, 5% glycerol, […]). Peak fractions were analyzed via SDS-PAGE, pooled and the protein was concentrated with Amicon Ultra-15 Centrifugal Filter tubes (Millipore). Purified proteins were aliquoted, snap-frozen in liquid N2, and stored at −80 °C.
The equilibrium binding constant of 1a and 1b to the taxane site of assembled MTs were determined by the displacement of FTX2 from the taxane site in cross-linked MTs. The displacement isotherm of each ligand was measured at least three times in two different plates with a fluorescence polarization microplate reader, as described. A mixture of 50 nM taxane binding sites and 50 nM FTX2 in GAB buffer was sampled in a 96-well plate. […] After mixing the samples for 10 min by shaking at 250 rpm, they were incubated 20 min at the desired temperatures (26, 35 or 42 °C) and their anisotropies were measured using a Spark Tecan plater reader in fluorescence polarization at emission of 535 nm and excitation of 485 nm. A sample containing 50 nM taxane binding sites was employed as blank, and a 50 nM solution of FTX2 in GAB, 0.1 mM GTP was employed as anisotropy standard. G factor was calculated as a mean over several cells in different conditions. The molar saturation fraction, X b , of the probe for each competitor concentration is calculated from the polarization values measured, P. Measurements of the polarization of FTX2 completely displaced (P 0 ) and, in absence of the competitor ligand (P sat), are required for data processing. The binding of FTX2 in the presence of the competitor ligand (X b = (P–P 0 /P sat – P 0 ) · X sat) was calculated and best fitted to the equilibrium binding constant of the competitor assuming unitary stoichiometry and the binding constant of the reference ligand (FTX2) with a PC program (Equigra v5).
Once the equilibrium binding constants are measured at different temperatures, the standard free energy of binding at a given temperature is calculated from the binding constant as ΔG 0app = −RT Ln K a, the standard enthalpy of the binding reaction is calculated from the representation of Ln K a versus 1/T (Van’t Hoff representation), and the slope of this representation multiplied by −R is equal to −ΔH 0app. The standard entropy of binding to ΔS 0app is calculated from the slope of the linear regression of ΔG 0app versus T.

Consider `COc1ccc2c(c1)CC(NC(=O)CCCCCCCC(=O)OC1CC3OCC3(OC(C)=O)C3C(OC(=O)c4ccccc4)C4(O)CC(OC(=O)C(O)C(NC(=O)c5ccccc5)c5ccccc5)C(C)=C(C(OC(C)=O)C(=O)C13C)C4(C)C)CC2` [1b, 7-O-((S)-9″-(7‴-Methoxy-1‴,2‴,3‴,4‴-tetrahydronaphthalen-2‴-yl)amino) −9″-oxononanoyl) Paclitaxel], for which the “fold lower binding constant than PTX” value is reported as roughly 100 fold; the “incremental binding free energy (ΔΔG), PTX-to-derivative modification” value (shortened to “incremental binding free energy (ΔΔG)”) was found to be 12.8 kJ mol^–1; the “ΔH 0 app” value was “–35 ± 7 kJ mol^–1”; the “ΔG 0 app at 26 °C” value is listed as “–28.9 ± 0.3 kJ mol^–1”. In addition, the “ΔS 0 app” value stood at 20 ± 5 J mol ^aK^–1.
Take `CC(=O)OC1C(=O)C2(C)C(OC(=O)CCCCC(=O)OC3CCc4ccccc43)CC3OCC3(OC(C)=O)C2C(OC(=O)c2ccccc2)C2(O)CC(OC(=O)C(O)C(NC(=O)c3ccccc3)c3ccccc3)C(C)=C1C2(C)C` (centres unmarked) [1a, 7-O-(6″-O-(2‴,3‴-Dihydroinden-1‴-yl)hexanedioyl) Paclitaxel]: the “fold lower binding constant than PTX” value is given as roughly 100 fold; the “incremental binding free energy (ΔΔG)” value came out at 9.8 kJ mol^–1; the “ΔH 0 app” value is recorded as “–24 ± 4 kJ mol^–1”; the “ΔG 0 app at 26 °C” value is listed as “–31.9 ± 0.1 kJ mol^–1”. Moreover, the “ΔS 0 app” value was “–27 ± 5 J mol ^aK^–1”.
Regarding `CC(=O)O[C@H]1C(=O)[C@]2(C)[C@@H](OC(=O)[C@H](C)NC(=O)c3ccc(-c4c5cc(F)c(=O)cc-5oc5cc(O)c(F)cc45)c(C(=O)O)c3)C[C@H]3OC[C@@]3(OC(C)=O)[C@H]2[C@H](OC(=O)c2ccccc2)[C@]2(O)C[C@H](OC(=O)[C@H](O)[C@@H](NC(=O)c3ccccc3)c3ccccc3)C(C)=C1C2(C)C` [FTX2, Flutax2], the “incremental binding free energy (ΔΔG)” value is on record as −0.3 kJ mol^–1.
